As usually defined, the pEC50 is the EC50 on a negative log10 scale, so that one unit is a factor of ten. One may read the Emax as the maximal effect, on the per cent scale that the assay sets.

Common to all, as to type: cell-based
In one data set the target is T1, human opioid δ receptor (Homo sapiens, UniProt P41143).
T1 construct: host or cells: CHO cells
Put plainly: Opioid receptor function test (agonist activity, Lance Ultra cAMP kit), δ receptor. The note with it: for Emax: maximum reaction relative to control drug SNC 80 taken as 100%. An excerpt: (§1) Opioid Receptor Function Test
(§2) Functional activity of the compound provided by the present invention on μ, δ, and κ opioid receptors was examined.
(§3) Method: Using a Lance Ultra cAMP kit (Perkin Elmer), the functional activity was examined by a predetermined method. In evaluation of agonist activity, CHO cells expressing each of human opioid receptors (δ, μ, and κ: accession numbers and catalog numbers are described below) were reacted with a test compound in an assay buffer (1× HBSS, […], pH 7.4, […] isobutylmethylxanthine (IBMX), 7.5% BSA) in the presence of 10 μM forskolin for 30 minutes. Subsequently, a cAMP detection reagent in the kit was added. One hour later, time-resolved fluorescence measurement was performed using an EnVision plate reader (Perkin Elmer). The test compound and each control drug (δ: SNC 80, μ: DAMGO, κ: U-69593) were evaluated in a concentration range of 10^−12 to 10^−5 M. A dose reaction curve of the test compound was determined from a fluorescence value at 665 nm, and an EC50 value and an Emax value were calculated. The Emax value was determined as a ratio of a maximum reaction of the test compound when a maximum reaction of each control drug was taken as 100%.

The target of a further data set is T2, human opioid μ receptor (Homo sapiens, UniProt P35372).
T2 construct: host or cells: CHO cells
T2 sequence (P35372 whole entry): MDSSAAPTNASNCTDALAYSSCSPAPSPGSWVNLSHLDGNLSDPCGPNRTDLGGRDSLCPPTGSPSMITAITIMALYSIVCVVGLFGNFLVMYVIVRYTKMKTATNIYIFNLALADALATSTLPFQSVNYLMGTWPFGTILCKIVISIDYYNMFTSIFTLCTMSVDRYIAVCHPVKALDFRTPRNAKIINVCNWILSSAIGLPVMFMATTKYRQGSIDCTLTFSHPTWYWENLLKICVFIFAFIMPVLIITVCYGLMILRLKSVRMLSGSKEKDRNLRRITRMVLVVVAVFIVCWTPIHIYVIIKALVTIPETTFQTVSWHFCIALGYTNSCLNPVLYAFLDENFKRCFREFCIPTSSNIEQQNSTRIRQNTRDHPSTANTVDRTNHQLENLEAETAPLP
The data set can be described thus: Opioid receptor function test (agonist activity, Lance Ultra cAMP kit), μ receptor. The note with it: for Emax: maximum reaction relative to control drug DAMGO taken as 100%.
Source text: as §1, §2, §3

For another data set, the target named is T3, human opioid κ receptor (Homo sapiens, UniProt P41145).
T3 construct: host or cells: CHO cells
T3 sequence (P41145 whole entry): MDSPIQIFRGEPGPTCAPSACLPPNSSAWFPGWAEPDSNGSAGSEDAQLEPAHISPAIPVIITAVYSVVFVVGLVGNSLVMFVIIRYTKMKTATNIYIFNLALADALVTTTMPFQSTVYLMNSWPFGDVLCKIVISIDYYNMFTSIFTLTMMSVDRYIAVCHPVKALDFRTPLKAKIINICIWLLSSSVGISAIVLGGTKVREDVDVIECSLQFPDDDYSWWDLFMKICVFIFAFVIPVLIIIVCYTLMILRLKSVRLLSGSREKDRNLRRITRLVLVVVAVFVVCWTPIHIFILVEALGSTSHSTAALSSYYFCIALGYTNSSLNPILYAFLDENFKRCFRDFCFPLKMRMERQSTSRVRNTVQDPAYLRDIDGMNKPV
The data set can be described thus: Opioid receptor function test (agonist activity, Lance Ultra cAMP kit), κ receptor. Particulars: for Emax: maximum reaction relative to control drug U-69593 taken as 100%.
Source text: as §1, §2, §3

The target in a further data set is T4, hERG channel (Homo sapiens, UniProt Q12809).
T4 construct: host or cells: CHO cells
T4 sequence (Q12809 whole entry): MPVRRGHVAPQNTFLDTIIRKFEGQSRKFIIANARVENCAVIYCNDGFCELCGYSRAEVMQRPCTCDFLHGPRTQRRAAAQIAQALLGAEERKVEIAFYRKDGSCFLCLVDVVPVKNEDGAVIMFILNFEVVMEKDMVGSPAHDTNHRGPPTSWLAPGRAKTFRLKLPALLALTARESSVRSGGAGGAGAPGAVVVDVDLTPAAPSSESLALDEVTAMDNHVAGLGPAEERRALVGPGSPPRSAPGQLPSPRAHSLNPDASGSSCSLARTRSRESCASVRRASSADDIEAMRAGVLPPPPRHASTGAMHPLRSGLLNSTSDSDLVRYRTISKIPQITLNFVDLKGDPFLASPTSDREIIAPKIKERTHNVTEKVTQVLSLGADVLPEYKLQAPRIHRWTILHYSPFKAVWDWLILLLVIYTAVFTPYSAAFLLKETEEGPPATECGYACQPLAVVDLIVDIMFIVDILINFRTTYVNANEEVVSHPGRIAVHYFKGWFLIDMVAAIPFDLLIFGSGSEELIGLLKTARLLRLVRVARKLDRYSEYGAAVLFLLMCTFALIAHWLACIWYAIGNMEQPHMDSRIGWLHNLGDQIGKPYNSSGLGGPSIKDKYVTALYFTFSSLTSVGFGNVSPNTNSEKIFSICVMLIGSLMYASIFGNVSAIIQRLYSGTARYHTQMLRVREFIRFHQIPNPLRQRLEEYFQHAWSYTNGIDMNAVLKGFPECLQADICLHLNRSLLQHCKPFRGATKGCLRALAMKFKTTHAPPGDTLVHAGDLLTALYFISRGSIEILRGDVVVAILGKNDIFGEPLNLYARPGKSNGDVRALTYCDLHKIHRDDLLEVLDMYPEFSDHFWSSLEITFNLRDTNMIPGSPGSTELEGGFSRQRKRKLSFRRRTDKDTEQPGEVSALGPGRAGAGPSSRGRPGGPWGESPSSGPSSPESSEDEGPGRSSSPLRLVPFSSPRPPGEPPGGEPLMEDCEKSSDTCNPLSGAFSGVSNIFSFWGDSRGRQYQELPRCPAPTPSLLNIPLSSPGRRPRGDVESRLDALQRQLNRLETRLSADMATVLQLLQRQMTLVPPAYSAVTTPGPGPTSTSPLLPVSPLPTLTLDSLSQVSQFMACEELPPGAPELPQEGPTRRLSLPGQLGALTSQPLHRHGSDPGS
The data set can be described thus: hERG potassium channel inhibition test (auto patch clamp). The note with it: hERG channel stably expressing CHO cells, perfused at room temperature for 5 minutes. On the procedure: Ether-a-Go-Go Related Gene (hERG) Potassium Channel Inhibition Test
A test was performed using hERG channel stably expressing CHO cells (purchased from Channelopathy Foundation) with a Port-a-Patch auto patch clamping device (Nanion Technologies). A membrane potential of the cells was held at −80 mV, and then a test pulse of −50 mV for 1.5 seconds was applied at a frequency of once every 10 seconds following a depolarization pulse of +20 mV for 1.5 seconds. An hERG current was confirmed by a tail current induced by the test pulse. A test compound was dissolved in an extracellular solution ([…] NaCl, 4 mM KCl, 1.82 mM CaCl2, 1 mM MgCl2, 105 mM D(+)-glucose, 10 mM HEPES, pH 7.4) and perfused at room temperature for 5 minutes. An inhibition ratio was determined from a ratio of a tail current value after application of the compound when a maximum tail current value before application of the compound was taken as 100%. For the test, cells having a peak current value of the tail current of 300 pA or more, tail current run-down of less than 10% of a current initial value, and a leak current of less than 200 pA were used.

pEC50: −log10 of the molar value.

T1 sequence (P41143 whole entry): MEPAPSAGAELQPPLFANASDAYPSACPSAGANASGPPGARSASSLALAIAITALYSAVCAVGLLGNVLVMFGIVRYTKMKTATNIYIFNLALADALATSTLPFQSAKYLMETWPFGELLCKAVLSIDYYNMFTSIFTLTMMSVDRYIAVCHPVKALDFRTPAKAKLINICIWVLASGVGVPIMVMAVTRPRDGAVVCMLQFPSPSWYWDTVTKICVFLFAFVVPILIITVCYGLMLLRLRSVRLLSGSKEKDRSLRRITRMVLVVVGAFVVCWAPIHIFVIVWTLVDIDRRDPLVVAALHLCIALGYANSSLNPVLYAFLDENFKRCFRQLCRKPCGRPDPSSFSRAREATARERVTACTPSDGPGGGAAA

Consider `Cc1c2c(nn1C(C)C)C[C@]13CCN(CC4CC4)[C@H](Cc4ccc(O)cc41)[C@]3(O)C2` [Compound 22, (6R,6aS,11aR)-14-(cyclopropylmethyl)-9-isopropyl methyl-5,6,9,11-tetrahydro-6,11a-(epiminoethano)naphtho[2,1-f]indazole-2,6a(7H)-diol], for which the pEC50 on human opioid δ receptor is 9.74; on human opioid μ receptor, 7.82; at human opioid κ receptor it was 7.89. For the same compound, the Emax at human opioid δ receptor is 107%; at human opioid μ receptor, 15%; on human opioid κ receptor, 35%. Moreover, on hERG channel, the “hERG inhibitory effect (tail current inhibition)” value (“hERG inhibitory effect” below) is on record as “only weak inhibitory effect”.
In the case of `Cc1nn(-c2ccccc2)c2c1C[C@@]1(O)[C@H]3Cc4ccc(O)cc4[C@@]1(CCN3C)C2` [Compound 61, (6R,6aS,11aR)-8,14-dimethyl-10-phenyl-5,6,10,11-tetrahydro-6,11a-(epiminoethano)naphtho[2,1-f]indazole-2,6a(7H)-diol], the figures for the pEC50 at human opioid δ receptor, at human opioid μ receptor and at human opioid κ receptor were 7.82, 6.59 and 5.99, respectively. Further, the figures for the Emax at human opioid δ receptor, at human opioid μ receptor and at human opioid κ receptor were 91%, 63% and 14%, respectively.
With `Cc1c2c(nn1-c1ccccc1)C[C@]13CCN(CC4CC4)[C@H](Cc4ccc(O)cc41)[C@]3(O)C2` [Compound 20, (6R,6aS,11aR)-14-(cyclopropylmethyl)-8-methyl-9-phenyl-5,6,9,11-tetrahydro-6,11a-(epiminoethano)naphtho[2,1-f]indazole-2,6a(7H)-diol], the values for the pEC50 at human opioid δ receptor, on human opioid μ receptor and at human opioid κ receptor were 9.05, 8.09 and 8.06, respectively. For the same compound, the Emax at human opioid δ receptor stood at 86%; at human opioid μ receptor, 10%; at human opioid κ receptor, 12%.
With `Cc1c2c(nn1C1CCC1)C[C@]13CCN(CC4CC4)[C@H](Cc4ccc(O)cc41)[C@]3(O)C2` [Compound 85, (6R,6aS,11aR)-9-cyclobutyl-14-(cyclopropylmethyl) methyl-5,6,9,11-tetrahydro-6,11a-(epiminoethano)naphtho[2,1-f]indazole-2,6a(7H)-diol], the pEC50 was 10.04 on human opioid δ receptor, 7.80 at human opioid μ receptor and 7.77 at human opioid κ receptor. The Emax was determined as 104% on human opioid δ receptor, 26% at human opioid μ receptor and 25% on human opioid κ receptor.
With `Cc1nn(CCO)c2c1C[C@@]1(O)[C@H]3Cc4ccc(O)cc4[C@@]1(CCN3CC1CC1)C2` [Compound 44, (6R,6aS,11aR)-14-(cyclopropylmethyl)-10-(2-hydroxyethyl)-8-methyl-5,6,10,11-tetrahydro-6,11a-(epiminoethano)naphtho[2,1-f]indazole-2,6a(7H)-diol], at hERG channel, the “hERG inhibitory effect” value is reported as “only weak inhibitory effect”.
For the compound `Cc1c2c(nn1C1CC1)C[C@]13CCN(CC4CC4)[C@H](Cc4ccc(O)cc41)[C@]3(O)C2` [Compound 83, (6R,6aS,11aR)-9-cyclopropyl-14-(cyclopropylmethyl)-8-methyl-5,6,9,11-tetrahydro-6,11a-(epiminoethano)naphtho[2,1-f]indazole-2,6a(7H)-diol], the values for the pEC50 at human opioid δ receptor, on human opioid μ receptor and on human opioid κ receptor were 9.89, 7.96 and 7.30, respectively. In addition, the figures for the Emax at human opioid δ receptor, on human opioid μ receptor and on human opioid κ receptor were 99%, 16% and 30%, respectively.
At human opioid δ receptor, `Cc1nn(C(C)C)c2c1C[C@@]1(O)[C@H]3Cc4ccc(O)cc4[C@@]1(CCN3CC1CC1)C2` [Compound 23, (6R,6aS,11aR)-14-(cyclopropylmethyl)-10-isopropyl-8-methyl-5,6,10,11-tetrahydro-6,11a-(epiminoethano)naphtho[2,1-f]indazole-2,6a(7H)-diol] showed a pEC50 of 9.32 and an Emax of 95%. Further, the “hERG inhibitory effect” value at hERG channel is recorded as “only weak inhibitory effect”.
On human opioid δ receptor, `Cc1c2c(nn1C(C)(C)C)C[C@]13CCN(CC4CC4)[C@H](Cc4ccc(O)cc41)[C@]3(O)C2` [Compound 24, (6R,6aS,11aR)-9-(tert-butyl)-14-(cyclopropylmethyl)-8-methyl-5,6,9,11-tetrahydro-6,11a-(epiminoethano)naphtho[2,1-f]indazole-2,6a(7H)-diol] had a pEC50 of 9.85 and an Emax of 108%. For the same compound, at human opioid κ receptor, the pEC50 was 7.77 and the Emax was found to be 23%. The “hERG inhibitory effect” value on hERG channel was “only weak inhibitory effect”.
For `Cc1c2c(nn1C1CCN(C)CC1)C[C@]13CCN(CC4CC4)[C@H](Cc4ccc(O)cc41)[C@]3(O)C2` [Compound 92, (6R,6aS,11aR)-14-(cyclopropylmethyl)-8-methyl-9-(1-methylpiperidin-4-yl)-5,6,9,11-tetrahydro-6,11a-(epiminoethano)naphtho[2,1-f]indazole-2,6a(7H)-diol], the pEC50 is 9.29 at human opioid δ receptor, 7.28 at human opioid μ receptor and 7.80 at human opioid κ receptor. For the same compound, the figures for the Emax at human opioid δ receptor, on human opioid μ receptor and at human opioid κ receptor were 103%, 17% and 20%, respectively.

The values above are taken from patent US20230141198A1, “PYRAZOL[…]” (THE KITASATO INSTITUTE, priority 2019, published 2023).
